From patent US12030878B2 (BRISTOL-MYERS SQUIBB COMPANY, priority 2017, dated 2024) come the findings set out here.

Holding throughout (format): cell-based
The target of one assay is T1, human TLR9 (Homo sapiens, UniProt Q9NR96).
T1 construct: host or cells: HEK-Blue cells
T1 sequence (Q9NR96 26-1032): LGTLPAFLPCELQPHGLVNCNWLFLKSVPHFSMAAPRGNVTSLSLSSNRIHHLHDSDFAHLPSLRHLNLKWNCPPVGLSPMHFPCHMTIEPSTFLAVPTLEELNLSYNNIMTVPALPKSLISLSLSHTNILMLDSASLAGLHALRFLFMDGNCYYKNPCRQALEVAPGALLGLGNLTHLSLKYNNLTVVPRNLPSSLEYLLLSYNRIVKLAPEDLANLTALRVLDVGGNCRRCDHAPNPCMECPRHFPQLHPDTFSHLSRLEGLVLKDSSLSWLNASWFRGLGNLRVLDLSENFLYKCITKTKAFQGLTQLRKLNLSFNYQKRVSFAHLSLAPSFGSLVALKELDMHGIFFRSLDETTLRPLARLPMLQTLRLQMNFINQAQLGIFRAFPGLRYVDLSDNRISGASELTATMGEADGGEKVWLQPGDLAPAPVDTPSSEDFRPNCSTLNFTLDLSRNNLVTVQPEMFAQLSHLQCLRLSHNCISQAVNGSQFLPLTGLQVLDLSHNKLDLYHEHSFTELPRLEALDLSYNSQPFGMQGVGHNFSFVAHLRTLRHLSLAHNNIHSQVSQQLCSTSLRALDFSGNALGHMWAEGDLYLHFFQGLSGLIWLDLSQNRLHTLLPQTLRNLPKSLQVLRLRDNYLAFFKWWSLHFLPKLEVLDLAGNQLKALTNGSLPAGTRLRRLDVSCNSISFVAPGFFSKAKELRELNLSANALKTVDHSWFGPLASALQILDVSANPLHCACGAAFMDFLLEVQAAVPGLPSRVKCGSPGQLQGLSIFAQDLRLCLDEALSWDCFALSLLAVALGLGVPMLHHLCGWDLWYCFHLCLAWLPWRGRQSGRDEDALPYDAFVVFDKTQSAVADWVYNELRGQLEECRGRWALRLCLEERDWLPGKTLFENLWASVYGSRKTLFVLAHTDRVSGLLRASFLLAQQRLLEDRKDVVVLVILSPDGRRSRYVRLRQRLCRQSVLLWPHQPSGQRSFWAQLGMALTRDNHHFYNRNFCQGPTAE
The assay is described as follows: TLR9 inhibition reporter assay (HEK-Blue SEAP). The conditions noted are these: HEK-Blue cells overexpressing human TLR9, stimulated with ODN2006 5 nM, 22 hour incubation. The gist of the method: (§1)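 Test compounds, final 0.05 nM–50 μM, pre-treat HEK-Blue human TLR7, TLR8 or TLR9 reporter cells before agonist addition (TLR8 R848 15.9 μM; TLR7 gardiquimod 7.5 μM; TLR9 ODN2006 5 nM). Incubation runs 22 h, 37 °C. SEAP detection gives percent inhibition against DMSO and reference-inhibitor controls.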

The next assay concerns the target T2, human TLR8 (Homo sapiens, UniProt Q9NR97).
T2 construct: host or cells: HEK-Blue cells
T2 sequence (Q9NR97 27-1041): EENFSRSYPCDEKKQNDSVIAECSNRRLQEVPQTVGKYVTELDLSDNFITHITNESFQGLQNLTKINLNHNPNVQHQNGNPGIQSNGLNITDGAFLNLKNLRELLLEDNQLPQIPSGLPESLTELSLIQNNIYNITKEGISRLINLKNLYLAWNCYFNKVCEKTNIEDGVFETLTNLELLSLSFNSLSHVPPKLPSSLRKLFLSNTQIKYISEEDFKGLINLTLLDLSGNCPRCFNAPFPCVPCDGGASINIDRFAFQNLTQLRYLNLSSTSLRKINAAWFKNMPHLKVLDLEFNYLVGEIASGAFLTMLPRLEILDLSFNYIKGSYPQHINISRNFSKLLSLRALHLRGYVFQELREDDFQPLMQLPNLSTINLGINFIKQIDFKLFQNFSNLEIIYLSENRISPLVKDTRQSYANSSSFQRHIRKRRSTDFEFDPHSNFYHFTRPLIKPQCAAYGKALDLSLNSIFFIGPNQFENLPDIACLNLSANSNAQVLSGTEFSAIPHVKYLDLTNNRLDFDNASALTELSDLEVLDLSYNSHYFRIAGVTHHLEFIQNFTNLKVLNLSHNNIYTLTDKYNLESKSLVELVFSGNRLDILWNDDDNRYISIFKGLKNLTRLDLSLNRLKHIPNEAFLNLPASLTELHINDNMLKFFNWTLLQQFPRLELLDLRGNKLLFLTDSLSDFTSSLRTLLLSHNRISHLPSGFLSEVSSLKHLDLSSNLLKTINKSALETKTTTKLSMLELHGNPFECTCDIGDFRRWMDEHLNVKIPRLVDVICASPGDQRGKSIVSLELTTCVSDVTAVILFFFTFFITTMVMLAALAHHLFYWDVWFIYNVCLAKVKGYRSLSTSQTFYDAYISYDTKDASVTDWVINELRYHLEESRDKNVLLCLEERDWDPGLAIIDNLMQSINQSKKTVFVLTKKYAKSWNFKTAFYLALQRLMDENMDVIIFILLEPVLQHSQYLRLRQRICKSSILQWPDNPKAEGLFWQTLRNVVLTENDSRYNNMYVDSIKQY
The assay is described as follows: TLR8 inhibition reporter assay (HEK-Blue SEAP). The conditions noted are these: HEK-Blue cells overexpressing human TLR8, stimulated with R848 15.9 μM, 22 hour incubation. The gist of the method: as §1
(In general: A reporter such as luciferase makes a cellular process visible.)

The next assay addresses T3, human TLR7 (Homo sapiens, UniProt Q9NYK1).
T3 construct: host or cells: HEK-Blue cells
T3 sequence (Q9NYK1 27-1049): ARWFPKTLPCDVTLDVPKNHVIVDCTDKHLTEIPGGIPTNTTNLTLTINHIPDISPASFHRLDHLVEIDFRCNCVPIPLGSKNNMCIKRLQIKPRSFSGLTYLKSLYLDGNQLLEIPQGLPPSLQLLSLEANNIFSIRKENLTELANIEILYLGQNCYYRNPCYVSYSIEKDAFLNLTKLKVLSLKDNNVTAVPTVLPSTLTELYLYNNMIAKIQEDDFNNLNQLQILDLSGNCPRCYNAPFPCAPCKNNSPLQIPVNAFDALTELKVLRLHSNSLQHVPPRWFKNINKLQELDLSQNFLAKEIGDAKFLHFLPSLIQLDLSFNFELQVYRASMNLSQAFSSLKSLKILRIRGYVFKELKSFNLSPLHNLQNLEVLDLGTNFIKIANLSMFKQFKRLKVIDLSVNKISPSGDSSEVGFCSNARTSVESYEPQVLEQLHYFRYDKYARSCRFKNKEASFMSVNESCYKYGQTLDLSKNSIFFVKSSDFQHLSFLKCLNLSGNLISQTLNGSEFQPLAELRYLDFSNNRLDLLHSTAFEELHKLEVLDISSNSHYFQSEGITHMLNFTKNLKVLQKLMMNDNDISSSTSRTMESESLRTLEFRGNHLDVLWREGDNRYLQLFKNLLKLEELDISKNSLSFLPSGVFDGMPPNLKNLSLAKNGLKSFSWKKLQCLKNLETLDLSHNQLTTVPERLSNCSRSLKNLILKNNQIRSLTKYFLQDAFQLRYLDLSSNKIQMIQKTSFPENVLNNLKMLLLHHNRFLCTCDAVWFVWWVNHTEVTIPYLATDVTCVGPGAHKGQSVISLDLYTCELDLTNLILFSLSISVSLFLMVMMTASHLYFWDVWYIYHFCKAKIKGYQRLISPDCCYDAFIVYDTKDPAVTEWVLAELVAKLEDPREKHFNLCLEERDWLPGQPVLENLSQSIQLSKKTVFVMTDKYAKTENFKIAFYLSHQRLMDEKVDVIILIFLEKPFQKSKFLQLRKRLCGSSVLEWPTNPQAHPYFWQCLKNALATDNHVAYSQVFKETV
The experiment in a line: TLR7 inhibition reporter assay (HEK-Blue SEAP). The conditions noted are these: HEK-Blue cells overexpressing human TLR7, stimulated with gardiquimod 7.5 μM, 22 hour incubation. Summed up: as §1

In general, IC50 refers to the concentration that gives 50% inhibition. Low values mean higher potency, high ones lower potency.

For the compound `COc1ccc(-c2[nH]c3ccc(OCC(=O)NCCC(C)(C)O)cc3c2C(C)C)cc1OC` [Example 153, 2-((2-(3,4-dimethoxyphenyl)-3-isopropyl-1H-indol-5-yl)oxy)-N-(3-hydroxy-3-methylbutyl)acetamide], the IC50 against human TLR9 is > 50000 nM; against human TLR8 it was 2530 nM; against human TLR7, 461 nM.
On the same counts, the results for `COc1ccc(-c2[nH]c3ccc(OCC(=O)NC[C@@H](F)C(C)(C)O)cc3c2C(C)C)cc1OC` [Example 154, (R)-2-((2-(3,4-dimethoxyphenyl)-3-isopropyl-1H-indol-5-yl)oxy)-N-(2-fluoro-3-hydroxy-3-methylbutyl) acetamide] are > 50000 nM, 1890 nM and 899 nM.
The matching figures for `Cc1cc(-c2[nH]c3ccc(OCC(=O)NCCC(C)(C)O)cc3c2C(C)C)ccn1` [Example 155, N-(3-hydroxy-3-methylbutyl)-2-((3-isopropyl-2-(2-methylpyridin-4-yl)-1H-indol-5-yl)oxy)acetamide]: > 50000 nM, 731 nM and 778 nM.
For `Cc1cc(-c2[nH]c3ccc(OCC4CCNCC4)cc3c2C(C)C)ccn1` [Example 156], the IC50 stood at 721 nM at human TLR9, 3.2 nM against human TLR8 and 12.9 nM on human TLR7.
On the same counts, the results for `Cc1cc(-c2[nH]c3ccc(O[C@@H]4CCNC4)cc3c2C(C)C)ccn1` [Example 157, (R)-3-isopropyl-2-(2-methylpyridin-4-yl)-5-(pyrrolidin-3-yloxy)-1H-indole] are 1910 nM, 7 nM and 8.7 nM.
`COc1ccc(-c2[nH]c3ccc(OCCC4CCNCC4)cc3c2C(C)C)cc1OC` [Example 158, 2-(3,4-dimethoxyphenyl)-3-isopropyl-5-(2-(piperidin-4-yl)ethoxy)-1H-indole]: the IC50 at human TLR9 came to 2990 nM; on human TLR8, 27.6 nM; at human TLR7 it was 49 nM.
The matching figures for `COc1ccc(-c2[nH]c3ccc(OCC4CCNCC4)cc3c2C(C)C)cc1OC` [Example 159, 2-(3,4-dimethoxyphenyl)-3-isopropyl-5-(piperidin-4-ylmethoxy)-1H-indole]: 2320 nM, 25.6 nM and 36.1 nM.
On the same counts, the results for `COc1ccc(-c2[nH]c3ccc(OCC4CCN(Cc5ccccc5)CC4)cc3c2C(C)C)cc1OC` [Example 160, 5-((1-benzylpiperidin-4-yl)methoxy)-2-(3,4-dimethoxyphenyl)-3-isopropyl-1H-indole] are 7570 nM, 128 nM and 275 nM.
The matching figures for `CCc1c(-c2ccnc(C)c2)[nH]c2ccc(OCC3CCNCC3)cc12` [Example 161, 3-ethyl-2-(2-methylpyridin-4-yl)-5-(piperidin-4-ylmethoxy)-1H-indole]: 218 nM, 4.2 nM and 22 nM.
With `CCc1c(-c2ccc(OC)c(OC)c2)[nH]c2ccc(OCC3CCNCC3)cc12` [Example 162, 2-(3,4-dimethoxyphenyl)-3-ethyl-5-(piperidin-4-ylmethoxy)-1H-indole], the IC50 against human TLR9 was found to be 2530 nM; against human TLR8, 22.8 nM; on human TLR7, 105 nM.
The matching figures for `CCc1c(-c2ccnc(C)c2)[nH]c2ccc(OC3CCNCC3)cc12` [Example 163, 3-ethyl-2-(2-methylpyridin-4-yl)-5-(piperidin-4-yloxy)-1H-indole]: 1810 nM, 9 nM and 146 nM.
The matching figures for `Cc1cc(-c2[nH]c3ccc(OC4CCNCC4)cc3c2C(C)C)ccn1` [Example 164, 3-isopropyl-2-(2-methylpyridin-4-yl)-5-(piperidin-4-yloxy)-1H-indole]: 1080 nM, 1.1 nM and 11.2 nM.
On the same counts, the results for `Cc1cc(-c2[nH]c3ccc(OCc4ccccc4)cc3c2C(C)C)ccn1` [Example 165, 5-(benzyloxy)-3-isopropyl-2-(2-methylpyridin-4-yl)-1H-indole] are > 50000 nM, 1290 nM and 5920 nM.
Turning to `Cc1cc(-c2[nH]c3ccc(OCCN4CCCC4)cc3c2C(C)C)ccn1` [Example 166, 3-isopropyl-2-(2-methylpyridin-4-yl)-5-(2-(pyrrolidin-1-yl)ethoxy)-1H-indole], the IC50 at human TLR9 amounted to 987 nM; against human TLR8, 3.1 nM; against human TLR7, 65.1 nM.
Turning to `Cc1cc(-c2[nH]c3ccc(OCCN(C)C)cc3c2C(C)C)ccn1` [Example 167, 2-((3-isopropyl-2-(2-methylpyridin-4-yl)-1H-indol-5-yl)oxy)-N,N-dimethylethan-1-amine], the figures for the IC50 against human TLR9, against human TLR8 and on human TLR7 were 1920 nM, 3.1 nM and 69 nM, respectively.
